Measurements: publication PMC10377601, “Side Chain-Modified Benzothiazinone Derivatives with Anti-Mycobacterial Activity” (Biomedicines, 2023)

What was measured:
M. tuberculosis H37Rv = test: MIC determination by microplate alamar blue assay (MABA); type: cell-based; conditions: Mycobacterium tuberculosis
[1] = target: T1, recombinant M. tuberculosis DprE1 enzyme (Mycobacterium tuberculosis, UniProt P9WJF1); test: DprE1 inhibition, Amplex Red/peroxidase coupled assay; type: biochemical; conditions: Mtb DprE1
T1 construct: made in house; host or cells: E. coli
T1 sequence (P9WJF1 whole entry): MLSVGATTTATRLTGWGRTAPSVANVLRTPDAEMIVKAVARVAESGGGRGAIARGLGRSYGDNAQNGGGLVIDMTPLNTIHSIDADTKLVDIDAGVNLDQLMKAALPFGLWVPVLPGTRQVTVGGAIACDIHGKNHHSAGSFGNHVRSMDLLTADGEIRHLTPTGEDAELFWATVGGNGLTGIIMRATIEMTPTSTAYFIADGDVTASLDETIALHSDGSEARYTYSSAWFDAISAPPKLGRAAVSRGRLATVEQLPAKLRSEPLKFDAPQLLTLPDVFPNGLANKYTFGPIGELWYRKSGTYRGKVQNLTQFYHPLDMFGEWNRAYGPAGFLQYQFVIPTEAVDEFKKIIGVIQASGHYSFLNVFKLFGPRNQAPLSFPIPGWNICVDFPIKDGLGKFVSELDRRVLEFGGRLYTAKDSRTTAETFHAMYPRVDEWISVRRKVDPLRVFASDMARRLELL

[2] = system: Mycobacterium tuberculosis; set-up: method as in PMID 24500695; conditions: whole-cell activity; cited from earlier work
in vitro = in vitro ADME; set-up: dose or concentration left out as unconfirmed; conditions: human, microsomes, pH 7.4
Procedure: The compounds’ metabolic stability were determined in human liver microsomes. A solution of microsomes (0.2 mg/mL) containing the compounds […], NADPH (1 mM), and phosphate buffer (100 mM, pH 7.4) were prepared. Pre-incubation was conducted at 37 °C for 10 min. There was addition of 50 µL and 5 mM NADPH to initiate the reaction. At 5, 15, 30, 60, or 120 min, 30 µL of reaction solution was taken out and quenched with 300 µL internal standard tolbutamide (10 ng/mL) in cold CH3CN. The mixture was centrifuged at 6000 rpm for 15 min at 4 °C. Then, 100 μL supernatant was diluted with 100 uL ultrapure water (Millipore, ZMQS50F01). The solution was analyzed via LC/MS analysis.

| Structure (SMILES) | MIC (M. tuberculosis H37Rv; 168 h, Mtb H37Rv, MABA) [µM] | MIC (M. tuberculosis H37Rv; Mtb H37Rv, MABA) [µM] | other results |
| --- | --- | --- | --- |
| CN(Cc1cn(-c2cccc(Br)c2)nn1)c1nc(=O)c2cc(C(F)(F)F)cc([N+](=O)[O-])c2s1 [Compound 16] | 0.014 to 0.207 | 0.055 |  |
| CN(Cc1nnc(-c2cccc(F)c2)s1)c1nc(=O)c2cc(C(F)(F)F)cc([N+](=O)[O-])c2s1 [Compound 41] |  | 0.024 |  |
| CN(Cc1cn(-c2ccc(Cl)cc2Cl)nn1)c1nc(=O)c2cc(C(F)(F)F)cc([N+](=O)[O-])c2s1 [Compound 29] |  | 0.023 | MIC (M. tuberculosis H37Rv; H37Rv, Table S1): 4 ng/mL; IC50 [1]: 24 nM |
| CN(Cc1cn(C2CCCCC2)nn1)c1nc(=O)c2cc(C(F)(F)F)cc([N+](=O)[O-])c2s1 [Compound 1, 2-{[(1-cyclohexyl-1H-1,2,3-triazol-4-yl)methyl](methyl)amino}-BTZ] | 0.032 | 0.032 |  |
| CN(Cc1nnc(-c2ccc(F)cc2)o1)c1nc(=O)c2cc(C(F)(F)F)cc([N+](=O)[O-])c2s1 [Compound 39] |  | 0.006 |  |
| CN(Cc1cn(-c2ccc(F)c(Cl)c2)nn1)c1nc(=O)c2cc(C(F)(F)F)cc([N+](=O)[O-])c2s1 [Compound 28] |  | 0.029 | MIC (M. tuberculosis H37Rv; H37Rv, Table S1): 8 ng/mL; IC50 [1]: 41 nM |
| CN(Cc1cn(-c2cccc3ccccc23)nn1)c1nc(=O)c2cc(C(F)(F)F)cc([N+](=O)[O-])c2s1 [Compound 9] |  | 0.217 |  |
| C[C@H]1COC2(CCN(c3nc(=O)c4cc(C(F)(F)F)cc([N+](=O)[O-])c4s3)CC2)O1 [BTZ043] |  |  | minimal inhibitory concentration (MIC) [2]: lower than 0.004 µM |
| CN(Cc1nnc(-c2ccc(F)cc2)s1)c1nc(=O)c2cc(C(F)(F)F)cc([N+](=O)[O-])c2s1 [Compound 42] |  | 0.026 |  |
| CN(Cc1cn(-c2cc(Cl)cc(Cl)c2)nn1)c1nc(=O)c2cc(C(F)(F)F)cc([N+](=O)[O-])c2s1 [Compound 30] |  | 0.047 | MIC (M. tuberculosis H37Rv; H37Rv, Table S1): 6 ng/mL; IC50 [1]: 90 nM |
| CN(Cc1nnc(-c2ccccc2)s1)c1nc(=O)c2cc(C(F)(F)F)cc([N+](=O)[O-])c2s1 [Compound 40, 2-{methyl[(5-phenyl-1,3,4-thiadiazol-2-yl)methyl]amino}-BTZ] |  | 0.033 | CLint scaled (in vitro): 50.7 mL/min/kg; half-life (in vitro): 34.3 min |
| CN(Cc1cn(-c2ccncc2)nn1)c1nc(=O)c2cc(C(F)(F)F)cc([N+](=O)[O-])c2s1 [Compound 5] |  | 0.047 |  |
| CN(Cc1cn(-c2ccc3ccccc3c2)nn1)c1nc(=O)c2cc(C(F)(F)F)cc([N+](=O)[O-])c2s1 [Compound 8] |  | 0.057 |  |
| CN(Cc1cn(-c2cc(F)cc(F)c2)nn1)c1nc(=O)c2cc(C(F)(F)F)cc([N+](=O)[O-])c2s1 [Compound 23] | < 0.023 | 0.016 |  |
| CN(Cc1cn(-c2ccccc2F)nn1)c1nc(=O)c2cc(C(F)(F)F)cc([N+](=O)[O-])c2s1 [Compound 14] | 0.27 | 0.27 |  |
| CN(Cc1cn(-c2cccc(I)c2)nn1)c1nc(=O)c2cc(C(F)(F)F)cc([N+](=O)[O-])c2s1 [Compound 17] | 0.014 to 0.207 | 0.133 |  |
| CN(Cc1coc(-c2ccc(F)cc2)n1)c1nc(=O)c2cc(C(F)(F)F)cc([N+](=O)[O-])c2s1 [Compound 32] |  | 0.006 | MIC (M. tuberculosis H37Rv; H37Rv, Table S1): 16 ng/mL; IC50 [1]: 750 nM |
| CN(Cc1csc(-c2ccc(F)cc2)n1)c1nc(=O)c2cc(C(F)(F)F)cc([N+](=O)[O-])c2s1 [Compound 36, 2-{[(2-(4-fluorophenyl)thiazol-4-yl)methyl](methyl)amino}-BTZ] | 0.034 | 0.034 | CLint scaled (in vitro): 25.5 mL/min/kg; half-life (in vitro): 68.2 min |
| CN(Cc1coc(-c2ccccc2)n1)c1nc(=O)c2cc(C(F)(F)F)cc([N+](=O)[O-])c2s1 [Compound 31, 2-{methyl[(2-phenyloxazol-4-yl)methyl]amino}-BTZ] |  | 0.006 | MIC (M. tuberculosis H37Rv; H37Rv, Table S1): 13 ng/mL; IC50 [1]: 220 nM; CLint scaled (in vitro): 51.7 mL/min/kg; half-life (in vitro): 33.6 min |

| Structure (SMILES) | MIC (M. tuberculosis H37Rv; 168 h, Mtb H37Rv, MABA) [µM] | MIC (M. tuberculosis H37Rv; Mtb H37Rv, MABA) [µM] | other results |
| --- | --- | --- | --- |
| CN(Cc1cn(-c2ccc(F)c(F)c2)nn1)c1nc(=O)c2cc(C(F)(F)F)cc([N+](=O)[O-])c2s1 [Compound 22] | < 0.023 | 0.014 |  |
| CN(Cc1cn(-c2cccc(F)c2)nn1)c1nc(=O)c2cc(C(F)(F)F)cc([N+](=O)[O-])c2s1 [Compound 13] | 0.008 | 0.008 |  |
| CN(Cc1cn(-c2c(F)cccc2F)nn1)c1nc(=O)c2cc(C(F)(F)F)cc([N+](=O)[O-])c2s1 [Compound 24] |  | 0.259 | IC50 [1]: 7200 nM |
| CN(Cc1cn(-c2cccc(C#N)c2)nn1)c1nc(=O)c2cc(C(F)(F)F)cc([N+](=O)[O-])c2s1 [Compound 21, 3-{4-[(methyl(8-nitro-4-oxo-6-(trifluoromethyl)-4H-benzo[e][1,3]thiazin-2-yl)amino)methyl)-1H-1,2,3-triazol-1-yl)benzonitrile] | 0.014 to 0.207 | 0.207 |  |
| CN(Cc1cn(-c2ccc(Cl)c(Cl)c2)nn1)c1nc(=O)c2cc(C(F)(F)F)cc([N+](=O)[O-])c2s1 [Compound 26] |  | 0.036 | MIC (M. tuberculosis H37Rv; H37Rv, Table S1): 4 ng/mL; IC50 [1]: 20 nM |
| CN(Cc1cn(-c2cccc(Cl)c2)nn1)c1nc(=O)c2cc(C(F)(F)F)cc([N+](=O)[O-])c2s1 [Compound 15] | 0.014 to 0.207 | 0.014 |  |
| CN(Cc1cn(-c2ccc(F)c(Br)c2)nn1)c1nc(=O)c2cc(C(F)(F)F)cc([N+](=O)[O-])c2s1 [Compound 27] |  | 0.055 | MIC (M. tuberculosis H37Rv; H37Rv, Table S1): 129 ng/mL; IC50 [1]: 7200 nM |
| COc1cccc(-n2cc(CN(C)c3nc(=O)c4cc(C(F)(F)F)cc([N+](=O)[O-])c4s3)nn2)c1 [Compound 18] | 0.014 to 0.207 | 0.12 |  |
| CN(Cc1cn(-c2ccc(F)cc2F)nn1)c1nc(=O)c2cc(C(F)(F)F)cc([N+](=O)[O-])c2s1 [Compound 25] |  | 0.023 |  |
| CN(Cc1cn(-c2ccc(F)cc2)nn1)c1nc(=O)c2cc(C(F)(F)F)cc([N+](=O)[O-])c2s1 [Compound 12] | 0.012 | 0.012 |  |
| Cc1cccc(-n2cc(CN(C)c3nc(=O)c4cc(C(F)(F)F)cc([N+](=O)[O-])c4s3)nn2)c1 [Compound 19, 2-{methyl[1-(m-tolyl)-1H-1,2,3-triazol-4-yl](methyl)amino}-BTZ] | 0.014 to 0.207 | 0.061 |  |
| CN(Cc1cn(-c2cccc(C(F)(F)F)c2)nn1)c1nc(=O)c2cc(C(F)(F)F)cc([N+](=O)[O-])c2s1 [Compound 20] | 0.014 to 0.207 | 0.04 |  |
| CN(Cc1cn(-c2ccc(-c3ccccc3)cc2)nn1)c1nc(=O)c2cc(C(F)(F)F)cc([N+](=O)[O-])c2s1 [Compound 7] |  | 0.44 |  |
| CN(Cc1csc(-c2ccccc2)n1)c1nc(=O)c2cc(C(F)(F)F)cc([N+](=O)[O-])c2s1 [Compound 34, 2-{methyl[(2-phenylthiazol-4-yl)methyl]amino}-BTZ] | 0.015 | 0.015 | MIC (M. tuberculosis H37Rv; H37Rv, Table S1): 3 ng/mL; IC50 [1]: 69 nM; CLint scaled (in vitro): 71.6 mL/min/kg; half-life (in vitro): 24.3 min |
| CN(Cc1nnc(-c2cccc(F)c2)o1)c1nc(=O)c2cc(C(F)(F)F)cc([N+](=O)[O-])c2s1 [Compound 38] |  | 0.006 |  |
| CN(Cc1cn(-c2cccnc2)nn1)c1nc(=O)c2cc(C(F)(F)F)cc([N+](=O)[O-])c2s1 [Compound 6] |  | 0.17 |  |
| CN(Cc1coc(-c2cccc(F)c2)n1)c1nc(=O)c2cc(C(F)(F)F)cc([N+](=O)[O-])c2s1 [Compound 33] |  | 0.021 | MIC (M. tuberculosis H37Rv; H37Rv, Table S1): 3 ng/mL; IC50 [1]: 74 nM |
| CN(Cc1csc(-c2cccc(F)c2)n1)c1nc(=O)c2cc(C(F)(F)F)cc([N+](=O)[O-])c2s1 [Compound 35] | 0.032 | 0.032 | MIC (M. tuberculosis H37Rv; H37Rv, Table S1): 7 ng/mL; IC50 [1]: 65 nM |
